From paper PMC4325424 (Cancer cell, 2015)

Molecular target: T1, glutathione peroxidase 1 (GPx1) (Homo sapiens, UniProt P07203)
T1 sequence (P07203 1-203): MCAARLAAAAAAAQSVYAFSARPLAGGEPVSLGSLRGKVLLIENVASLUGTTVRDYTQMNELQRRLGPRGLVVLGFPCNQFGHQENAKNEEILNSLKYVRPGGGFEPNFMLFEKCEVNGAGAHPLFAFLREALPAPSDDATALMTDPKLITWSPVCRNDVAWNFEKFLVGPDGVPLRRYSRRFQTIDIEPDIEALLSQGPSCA
Assay: radiometric […]-fumarate binding to bead-bound flag-GPx1

## O=C(O)/C=C/C(=O)O [fumarate]
  Kd: 75.5 ± 5.22 µM
